Laboratory results: patent publication US11480578B2, “Method for identifying a biomarker indicative of a reduced drug response using a thermal shift assay” (Pelago Bioscience AB, priority 2014, dated 2022)

Test system: Methionine aminopeptidase-2
Assay: cell resolved thermal shift assay (FACS sorting, heating, Western blot)
Assay type: cell-based, mouse
Conditions: TNP-470 final concentration 2 μM for one hour; mixed cells FACS sorted; heated 44 to 52° C.; MetAP-2 Western blot; FIG. 3
Procedure: Human cancer cell line K562 and mouse fibrosarcoma cell line T241 with endogenous expression of GFP, were cultured to short-term passages (3-15) in an incubator chamber. The T241 cells were treated with the MetAP-2 inhibitor TNP-470 (final concentration 2 μM) for one hour in the incubator chamber. Following incubation, the cells were washed by repeated centrifugation to pellet cells and re-dissolve in PBS. After this step, the cells were pooled into a PBS buffer. This mix of cells was then subjected to FACS sorting using a MoFlo XDP from Beckman Coulter. Cells were either sorted by their GFP fluorescence (T241) or by the lack of fluorescence (K562). The sorted cells were then aliquoted in 8 tube PCR strips and subjected to heating to temperatures ranging from 44 to 52° C. with two degree increments. After heating, the cells were snap frozen in N2 (I) and freeze thawed. The resulting cell debris together with precipitated protein was pelleted by centrifugation at 20000*g for 20 minutes. The supernatants, containing various amount of the target protein (MetAP-2) were subjected to standard SDS-Page and Western blot analysis using a specific primary MetAP-2 antibody (Santa Cruz Biotechnology SC-365637) at 1:400 dilution in non-fat dietary milk.

CO[C@@H]1[C@H](OC(=O)NC(=O)CCl)CC[C@]2(CO2)[C@H]1[C@@]1(C)O[C@@H]1CC=C(C)C [TNP-470]
stabilisation of the target protein Methionine aminopeptidase-2 (dark band shows presence of heat stabilised protein): stabilisation
